Measured values from PMC7824787, “Design, Synthesis and In Vitro Investigation of Novel Basic Celastrol Carboxamides as Bio-Inspired Leishmanicidal Agents Endowed with Inhibitory Activity against Leishmania Hsp90” (Biomolecules, 2021).
Like-named read-outs stand apart in the source and are kept apart here.

Legend:
[1] = tested on: BMDM; test: Cytotoxicity on BMDM (MTT); assay type: cell-based, mouse; conditions: 72 h, read-out: Healthy Cell Lines IC50, BMDM
Experimental: (§1) Cytotoxicity was evaluated on human microvascular endothelial cells (HMEC-1, provided by the Centers for Disease Control, Atlanta, GA, USA), on immortalized mouse C57Bl/6 bone marrow derived macrophages (BMDM) from wild type lineage (generated in the laboratories of Drs. Douglas Golenbock and Kate Fitzgerald, University of Massachusetts, Worcester, MA, USA) and on a human acute monocytic leukaemia cell line (THP-1).
(§2) HMEC-1 were maintained in MCDB 131 medium (Invitrogen, Milan, Italy) supplemented with 10% fetal calf serum (HyClone), 10 ng/mL of epidermal growth factor, 1 μg/mL of hydrocortisone, 2 mM glutamine and 20 mM HEPES buffer, at 37 °C in 5% CO2. BMDM were maintained in DMEM (Euroclone) medium supplemented with 10% fetal bovine serum (HyClone, Celbio, Milan, Italy), 2 mM glutamine, and 25 mM of HEPES buffer solution (Euroclone). THP-1 were maintained in RPMI supplemented with 10% heat-inactivated FCS, 50 µM 2-mercaptoethanol, 10 µM sodium pyruvate, 20 mM HEPES, and 2 mM glutamine. In order to achieve differentiation into macrophages, cells were treated with 10 ng/mL phorbol myristate acetate (PMA) for 72 h.
(§3) For the cytotoxicity assay, cells were seeded in 96 well flat bottom tissue culture clusters (Costar, New York, NY, USA) at the following concentrations: HMEC 10^5 cell/mL, BMDM at 10^6 cell/mL, THP1 at 5 × 10^5 cell/mL. After 24 h, cells were treated with serial dilutions of test compounds in a final volume of 200 µL/well. Cell proliferation was evaluated after 72 h using the MTT assay.
(§4) The absorbances were measured with a microplate spectrophotometer (Synergy 4-Biotek) at a test wavelength of 550 nm and a reference wavelength of 650 nm. The results are expressed as IC50 as the concentration inhibiting 50% of cell growth. Each IC50 value is the mean and standard deviation of at least three separate experiments performed in duplicate.

[2] = tested on: L. tropica promastigotes; test: Antileishmanial activity on L. tropica promastigotes (MTT); assay type: cell-based
Experimental: (§5) Promastigote stage of L. infantum (MHOM/TN/80/IPT1, kindly provided by Dr. M. Gramiccia and Dr. T. Di Muccio, ISS, Roma) and L. tropica (MHOM/SY/2012/ISS3130) were cultured in RPMI 1640 medium (EuroClone) supplemented with 15% heat-inactivated fetal calf serum (EuroClone, Milan, Italy), 20 mM HEPES, and 2 mM L-glutamine at 23 °C. The MTT (3-[4.5-dimethylthiazol-2-yl]-2.5-diphenyltetrazolium bromide) method was used to estimate the 50% inhibitory concentration (IC50), with some modifications. Compounds were dissolved in DMSO and then diluted with medium to achieve the required concentrations. Test compounds were placed in 96 wells round bottom microplates and seven serial dilutions made. Amphotericin B was used as the reference antileishmanial drug. Parasites were diluted in complete medium to 5 × 10^6 parasites/mL and 100 μL of the suspension was seeded into the plates and incubated at 23 °C for 72 h. Then 20 μL of MTT solution (5 mg/mL) was added into each well, after 3 h the plates were centrifuged, the supernatants discarded and the resulting pellets dissolved in 100 μL of lysing buffer consisting of 20% (w/v) of a solution of SDS (Sigma), 40% of N,N-dimethylformamide (Merck) in H2O. The absorbance of the obtained solutions was measured at a wavelength of 550 nm with a reference at 650 nm with a microplate spectrophotometer (Synergy 4-Biotek, Milan, Italy) and analyzed with the Gen5® software for data processing.
(§6) The results are expressed as IC50, the dose of compound that is necessary to inhibit cell growth by 50%; each IC50 value is the mean ± standard deviation of at least three separate experiments performed in duplicate.

[3] = tested on: THP-1; test: Cytotoxicity on THP-1 (MTT); assay type: cell-based, human; conditions: read-out: Healthy Cell Lines IC50, THP-1
Experimental: as §1, §2, §3, §4

[4] = tested on: L. infantum promastigotes; test: Antileishmanial activity on L. infantum promastigotes (MTT); assay type: cell-based
Experimental: as §5, §6

[5] = molecular target: LbHsp90 (Leishmania braziliensis, UniProt A4HL70); test: In vitro inhibition of the ATPase activity of LbHsp90 (Malachite Green Phosphate Assay); assay type: biochemical; conditions: 7 μM LbHsp90, 27 °C, 60 min
From the text: To evaluate in vitro the modulatory activity of CE, PR and CE caboxamides, a full-length recombinant Hsp90 from L. braziliensis (LbHsp90) was produced in E. coli BL21 DE3 harboring the pET28a_LbHsp90 coding for the C-terminal His-tagged target chaperone (genbank number: XP_001567804.1, full sequence is reported in Appendix B). Pratically, the plasmid pET28a_LbHsp90, kindly donated by professor J.C. Borges, was transformed in E. coli BL21 DE3 using the TransformAid Bacterial Transformation Kit (Thermo Fisher, Waltham, MA, USA). Subsequently, the obtained transformants were grown overnight in LB medium containing 30 μg mL^−1 kanamycin (LBkan30) and then inoculated in 1 L SB kan30 medium (Yeast extract 30 g L^−1, Tryptone 20 g L^−1, NaCl 10 g L^−1) at 37 °C and 220 rpm. When the OD600 reached 0.5–1, gene expression was induced by the addition of 2 mL of 1 M IPTG solution in water and the culture was shifted at 30 °C for 24 h. After cell harvesting by centrifugation (5000 rpm for 30 min), the cell pellet was resuspended in 20 mL of wash buffer (20 mM HEPES buffer, pH 7.0, 500 mM NaCl, 20 mM imidazole) and recombinant E. coli BL21DE3 cells were disrupted by ultrasonication. LbHsp90 was subsequently purified using a Nickel Sepharose 6 Fast Flow agarose resin (Ni-NTA) (GE Healthcare, Milan, Italy) as follows. Soluble protein fraction was separated from cell debris by centrifugation (10,000 rpm for 30min) after cell ultrasonication, and clear lysates were incubated with the Ni-NTA resin for 90 min at 4 °C under mild shaking and loaded onto a glass column (10 × 110 mm). The resin was then washed with 10mL of wash buffer and His-tagged LbHsp90 was eluted using a 3 step gradient (10 mL washing buffer containing 100, 200, and 300 mM imidazole, respectively) and dialyzed against 20 mM HEPES buffer (20 mM, pH 7.5), at 4 °C overnight. The protein content was measured using the Bio-Rad Protein Assay (Hercules, CA, USA) according to the Bradford method and the protein purity was verified by SDS-PAGE analysis (10% T, 2.6% C). It is worth noting that to avoid interferences with the assays described below, proteins were purified and conserved in HEPES buffer (20 mM, pH 7.5) in place of the standard PB-buffer. Reported data are the mean of two experiments run in duplicate.
Modulatory activity toward the ATPase cycle of LbHsp90 was determined using a Malachite Green Phosphate Assay Kit (Catalog Number MAK307, Sigma-Aldrich®, St. Louis, MO, USA). Analyses were run in a 96-well plate directly following the quantitative formation of a green complex between Malachite Green, molybdate, and free orthophosphate (Pi) produced by ATP hydrolysis catalyzed by the chaperone. Color formation from the reaction was measured on a plate reader at 620 nm. Briefly, the IC50 of CE and its derivatives were extrapolated from a set of dose-response curves obtained by calculating the amount of Pi produced by LbHsp90 in the presence of different compounds concentrations.
Reactions were run in HEPES buffer (20 mM, pH 7.5) containing 3 mM MgCl2 and 50 mM KCl in the presence of different compounds concentrations ([…]), LbHsp90 (7 μM) and ATP (25 mM) at 27 °C for 60 min. OD620 was measured 30 min after Malachite Green reactants addition.
LbHsp90 native activity was measured by conducting the reaction in the presence of just LbHsp90 and ATP and extrapolating the concentration of Pi obtained.
Three sets of control experiments, (1) ATP background hydrolysis, (2) compounds-related interferences and (3) protein-related background coloration, were run as follow: • (1) ATP (25 mM) incubated at 27 °C for 60 min • (2) Compounds (different concentrations) incubated with ATP (25 mM) at 27 °C for 60 min • (3) LbHsp90 (7 μM) at 27 °C for 60 min
The in vitro performances of CE, PR and the carboxamides 1–11 (Figure 4) as potential inhibitors of the Leishmania braziliensis Hsp90 were investigated using Sigma-Aldrich® Malachite Green Phosphate Assay Kit. […]

[6] = tested on: HMEC-1; test: Cytotoxicity on HMEC-1 (MTT); assay type: cell-based, human; conditions: read-out: Healthy Cell Lines IC50, HMEC-1
Experimental: as §1, §2, §3, §4

[7] = Leishmania tropica; 72 h, 23 °C, MTT; read-out: Leishmania Promastigotes IC50, L. tropica
[8] = Homo sapiens, THP-1, PMA-differentiated, 72 h, MTT
[9] = Leishmania infantum; 72 h, 23 °C, MTT; read-out: Leishmania Promastigotes IC50, L. infantum
[10] = Leishmania tropica, 72 h, 23 °C, MTT, read-out: Leishmania Promastigotes IC50, L. tropica
[11] = Homo sapiens, HMEC-1, 72 h, MTT
[12] = 72 h, 23 °C, MTT; read-out: Leishmania Promastigotes IC50, L. tropica

LbHsp90, sequence (A4HL70 entry or part of it): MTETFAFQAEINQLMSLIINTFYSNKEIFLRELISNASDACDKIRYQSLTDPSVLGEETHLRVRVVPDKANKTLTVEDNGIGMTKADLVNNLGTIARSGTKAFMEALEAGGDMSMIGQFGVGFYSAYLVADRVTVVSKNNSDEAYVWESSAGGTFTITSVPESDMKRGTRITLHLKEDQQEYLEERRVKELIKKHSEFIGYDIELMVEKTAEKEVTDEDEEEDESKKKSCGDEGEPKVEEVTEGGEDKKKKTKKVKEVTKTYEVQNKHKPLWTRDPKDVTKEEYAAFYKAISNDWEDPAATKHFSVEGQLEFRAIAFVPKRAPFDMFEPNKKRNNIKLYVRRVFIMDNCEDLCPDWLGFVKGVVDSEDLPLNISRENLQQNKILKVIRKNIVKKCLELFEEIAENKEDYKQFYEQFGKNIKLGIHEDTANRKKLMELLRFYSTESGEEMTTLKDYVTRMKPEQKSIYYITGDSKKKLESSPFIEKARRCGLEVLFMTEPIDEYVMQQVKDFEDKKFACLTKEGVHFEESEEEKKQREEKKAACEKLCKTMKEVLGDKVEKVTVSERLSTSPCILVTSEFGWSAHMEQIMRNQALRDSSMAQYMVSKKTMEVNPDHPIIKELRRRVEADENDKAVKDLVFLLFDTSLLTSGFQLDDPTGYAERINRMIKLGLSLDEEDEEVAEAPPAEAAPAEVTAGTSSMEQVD

Compound	IC50 [2, 7]	IC50 [3, 8]	IC50 [5]	IC50 [4, 9]	IC50 ([1]; Mus musculus, BMDM, MTT)	melting point	IC50 [2, 10]	IC50 [6, 11]	IC50 [2, 12]	other results
COC(=O)[C@]1(C)CC[C@]2(C)CC[C@]3(C)C4=CC=C5C(=CC(=O)C(O)=C5C)[C@]4(C)CC[C@@]3(C)[C@@H]2C1 [PR, pristimerin, reference compound]										IC50 ([1]; Mus musculus, BMDM): 1270 ± 90 nM; IC50 ([2]; Leishmania tropica, 72 h, read-out: Leishmania Promastigotes IC50, L. tropica): 240 ± 40 nM; IC50 ([3]; Homo sapiens, THP-1, 72 h): 1100 ± 350 nM; IC50 ([4]; Leishmania infantum, 72 h, read-out: Leishmania Promastigotes IC50, L. infantum): 260 ± 20 nM
CC1=C(O)C(=O)C=C2C1=CC=C1[C@@]2(C)CC[C@@]2(C)[C@@H]3C[C@](C)(C(=O)NCCCN4CCCCC4)CC[C@]3(C)CC[C@]12C [compound 2, (2R,4aS,6aS,12bR,14aS,14bR)-10-hydroxy-2,4a,6a,9,12b,14a-hexamethyl-11-oxo-N-(3-(piperidin-1-yl)propyl)-1,2,3,4,4a,5,6,6a,11,12b,13,14,14a,14b-tetradecahydropicene-2-carboxamide]	210 ± 40 nM	1780 ± 480 nM	> 125 µM	260 ± 60 nM						
C=CCSSCCNC(=O)[C@]1(C)CC[C@]2(C)CC[C@]3(C)C4=CC=C5C(=CC(=O)C(O)=C5C)[C@]4(C)CC[C@@]3(C)[C@@H]2C1 [compound 10, (2R,4aS,6aS,12bR,14aS,14bR)-N-(2-(allyldisulfanyl)ethyl)-10-hydroxy-2,4a,6a,9,12b,14a-hexamethyl-11-oxo-1,2,3,4,4a,5,6,6a,11,12b,13,14,14a,14b-tetradecahydropicene-2-carboxamide]	340 ± 210 nM	930 ± 270 nM	> 125 µM	460 ± 120 nM	2860 ± 170 nM	173.7 to 175.1 °C				IC50 ([6]; Homo sapiens, HMEC-1, 72 h): 170 ± 40 nM
CC1=C(O)C(=O)C=C2C1=CC=C1[C@@]2(C)CC[C@@]2(C)[C@@H]3C[C@](C)(C(=O)NCCCNc4ccnc5cc(Cl)ccc45)CC[C@]3(C)CC[C@]12C [compound 7, (2R,4aS,6aS,12bR,14aS,14bR)-N-(3-((7-chloroquinolin-4-yl)amino)propyl)-10-hydroxy-2,4a,6a,9,12b,14a-hexamethyl-11-oxo-1,2,3,4,4a,5,6,6a,11,12b,13,14,14a,14b-tetradecahydropicene-2-carboxamide]		480 ± 170 nM	> 125 µM		1780 ± 530 nM	211.1 to 215 °C	150 ± 40 nM	130 ± 10 nM		IC50 ([4]; Leishmania infantum, 72 h, 23 °C, MTT, read-out: Leishmania Promastigotes IC50, L. infantum): 200 ± 10 nM
(6bS,8aS,11R,12aR,12bS,14aR)-3-hydroxy-4,6b,8a,11,12b,14a-hexamethyl-11-(((((2R,3R,4R,5S,6R)-2,4,5-trihydroxy-6-(hydroxymethyl)tetrahydro-2H-pyran-3-yl)amino)oxy)carbonyl)-7,8,8a,9,10,11,12,12a,12b,13,14,14a-dodecahydropicen-2(6bH)-one [compound 11]			47 ± 5 µM						15200 ± 2710 nM	IC50 ([1]; MTT): > 15900 nM; IC50 ([3]; PMA-differentiated, 72 h, MTT): > 15900 nM; IC50 ([6]; 72 h, MTT): > 14200 nM; IC50 ([4]; 72 h, 23 °C, MTT; read-out: Leishmania Promastigotes IC50, L. infantum): 14400 ± 1960 nM
CC1=C(O)C(=O)C=C2C1=CC=C1[C@@]2(C)CC[C@@]2(C)[C@@H]3C[C@](C)(C(=O)NCSS(C)(=O)=O)CC[C@]3(C)CC[C@]12C [compound 8, S-(((2R,4aS,6aS,12bR,14aS,14bR)-10-hydroxy-2,4a,6a,9,12b,14a-hexamethyl-11-oxo-1,2,3,4,4a,5,6,6a,11,12b,13,14,14a,14b-tetradecahydropicene-2-carboxamido)methyl) methanesulfonothioate]		2510 ± 870 nM	67 ± 3 µM		13900 ± 2780 nM		2000 to 4000 nM	3030 ± 10 nM	3440 ± 1120 nM	
